Usually IC50 stands for the midpoint of a concentration-inhibition curve.

Structures are written as SMILES.

Among the data in patent US9296725B2, “Heterocyclyl pyrimidine analogues as TYK2 inhibitors” (Cellzome Limited, priority 2012, dated 2016) are IC50 values, retold here.

The target in one test is T1, JAK2 (Homo sapiens, UniProt O60674).
T1 construct: endogenous in cells; host or cells: Molt4 (ATCC CRL-1582) and Ramos (ATCC CRL-1596), mixed lysate 1:2
Nature of the test: Kinobeads assay, JAK2 (competition binding in mixed Molt4/Ramos cell lysate, dot blot detection). The following applies: read-out: JAK2 Band (Kinobeads assay potency, IC50). The procedure, abridged:
(§1)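 JAK2 and TYK2 retained on Kinobeads (immobilized aminopyrido-pyrimidine ligand) from 1:2 Molt4:Ramos lysate (10 mg/mL) were quantified by antibody dot blot (Odyssey infrared) after 3 h cold incubation with compound. Nine-step 1:3 dilution series; IC50 calculated from curves.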

A further test concerns the target T2, TYK2 (Homo sapiens, UniProt P29597).
T2 construct: endogenous in cells; host or cells: Molt4 (ATCC CRL-1582) and Ramos (ATCC CRL-1596), mixed lysate 1:2
In words: Kinobeads assay, TYK2 (competition binding in mixed Molt4/Ramos cell lysate, dot blot detection). The following applies: Kinobeads assay, Molt4/Ramos lysate; read-out: TYK2 Band (Kinobeads assay potency, IC50). Put shortly: as §1

T1 sequence (O60674 whole entry): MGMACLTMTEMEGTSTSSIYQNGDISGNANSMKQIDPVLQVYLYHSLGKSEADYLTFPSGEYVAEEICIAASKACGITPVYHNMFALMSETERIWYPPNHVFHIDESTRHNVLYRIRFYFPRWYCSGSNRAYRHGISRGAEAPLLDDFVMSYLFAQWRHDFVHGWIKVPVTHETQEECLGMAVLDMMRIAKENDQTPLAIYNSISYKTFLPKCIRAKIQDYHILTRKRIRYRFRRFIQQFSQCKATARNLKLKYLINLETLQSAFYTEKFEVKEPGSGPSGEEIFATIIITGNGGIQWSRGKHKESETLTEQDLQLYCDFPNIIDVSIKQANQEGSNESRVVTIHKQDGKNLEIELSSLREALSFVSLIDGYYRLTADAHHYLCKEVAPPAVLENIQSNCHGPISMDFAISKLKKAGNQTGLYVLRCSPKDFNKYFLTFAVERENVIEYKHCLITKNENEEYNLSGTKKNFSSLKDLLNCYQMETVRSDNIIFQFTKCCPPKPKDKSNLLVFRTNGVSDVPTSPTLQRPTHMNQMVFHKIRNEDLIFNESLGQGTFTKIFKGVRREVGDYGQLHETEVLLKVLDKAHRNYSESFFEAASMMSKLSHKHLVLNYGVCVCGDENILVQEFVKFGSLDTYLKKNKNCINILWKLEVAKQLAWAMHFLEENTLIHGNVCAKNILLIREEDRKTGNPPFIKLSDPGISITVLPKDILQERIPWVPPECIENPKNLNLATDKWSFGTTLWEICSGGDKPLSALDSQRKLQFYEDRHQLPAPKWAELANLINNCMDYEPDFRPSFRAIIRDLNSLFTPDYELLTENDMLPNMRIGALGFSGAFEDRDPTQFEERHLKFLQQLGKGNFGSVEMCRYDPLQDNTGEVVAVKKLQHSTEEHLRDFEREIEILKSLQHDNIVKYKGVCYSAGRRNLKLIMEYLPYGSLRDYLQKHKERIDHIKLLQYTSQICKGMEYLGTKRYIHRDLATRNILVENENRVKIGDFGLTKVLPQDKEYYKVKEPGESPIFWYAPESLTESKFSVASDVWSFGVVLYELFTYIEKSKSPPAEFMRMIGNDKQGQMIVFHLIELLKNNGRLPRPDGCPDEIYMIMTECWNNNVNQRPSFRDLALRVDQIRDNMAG
T2 sequence (P29597 whole entry): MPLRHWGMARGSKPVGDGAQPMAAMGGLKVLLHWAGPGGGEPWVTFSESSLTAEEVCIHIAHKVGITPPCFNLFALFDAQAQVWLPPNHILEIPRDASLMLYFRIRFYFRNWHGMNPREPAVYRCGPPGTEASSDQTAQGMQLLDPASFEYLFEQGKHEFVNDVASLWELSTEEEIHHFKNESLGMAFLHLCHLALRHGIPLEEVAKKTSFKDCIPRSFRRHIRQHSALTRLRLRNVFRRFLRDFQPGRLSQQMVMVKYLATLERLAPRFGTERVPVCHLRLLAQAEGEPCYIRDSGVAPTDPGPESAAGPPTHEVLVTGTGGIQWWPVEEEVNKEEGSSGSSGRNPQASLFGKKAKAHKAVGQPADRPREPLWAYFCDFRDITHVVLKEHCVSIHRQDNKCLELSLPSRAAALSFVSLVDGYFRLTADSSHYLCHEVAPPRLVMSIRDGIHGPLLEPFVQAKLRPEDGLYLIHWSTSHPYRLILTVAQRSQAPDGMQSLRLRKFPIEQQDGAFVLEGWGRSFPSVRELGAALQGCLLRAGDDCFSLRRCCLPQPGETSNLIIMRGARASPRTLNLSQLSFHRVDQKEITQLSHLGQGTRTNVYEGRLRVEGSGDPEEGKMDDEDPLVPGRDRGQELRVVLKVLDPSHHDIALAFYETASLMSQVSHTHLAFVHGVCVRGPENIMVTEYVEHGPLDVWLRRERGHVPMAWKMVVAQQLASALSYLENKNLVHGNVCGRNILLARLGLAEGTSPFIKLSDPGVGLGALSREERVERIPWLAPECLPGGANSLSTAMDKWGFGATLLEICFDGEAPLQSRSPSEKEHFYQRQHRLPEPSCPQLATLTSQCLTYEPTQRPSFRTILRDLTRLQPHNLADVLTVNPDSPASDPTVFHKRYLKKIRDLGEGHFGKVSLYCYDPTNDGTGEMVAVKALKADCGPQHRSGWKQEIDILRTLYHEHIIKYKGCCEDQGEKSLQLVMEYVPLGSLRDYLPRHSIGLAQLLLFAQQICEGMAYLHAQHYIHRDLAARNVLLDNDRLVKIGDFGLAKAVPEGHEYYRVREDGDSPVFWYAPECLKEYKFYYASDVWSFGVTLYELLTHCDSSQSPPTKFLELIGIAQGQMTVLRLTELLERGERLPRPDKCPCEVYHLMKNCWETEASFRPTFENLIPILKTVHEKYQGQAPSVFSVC

`CN1CCC(n2cc(Nc3ncc(Cl)c(NCc4ccccc4)n3)cn2)C1=O` (stereo not drawn) [Example I-253]: the concentration for half-maximal inhibition (IC50) at JAK2 and on TYK2 was 0.1 to 1 µM in each case.

For the compound `C[C@H](CO)NC(=O)Cn1cc(Nc2nccc(NCc3c(F)cccc3Cl)n2)cn1` [Example I-106], the values for the IC50 on JAK2 and at TYK2 were 1 to 10 µM and not above 0.01 µM, respectively.

Take `COc1ccc(S(C)(=O)=O)cc1CNc1nc(Nc2cnn(C)c2)ncc1F` [Example I-446]: the IC50 fell in the range of 1 to 10 µM on JAK2 and 0.01 to 0.1 µM at TYK2.

On to `OCCn1cc(Nc2ncc(Cl)c(NCc3ccccc3CO)n2)cn1` [Example I-357], for which the IC50 is 1 to 10 µM at JAK2 and 0.1 to 1 µM at TYK2.

In the case of `CNC(=O)Cn1cc(Nc2ncc(F)c(NCc3c(F)ccc(OC)c3F)n2)cn1` [Example I-12], the IC50 at JAK2 was 1 to 10 µM; at TYK2 it was 0.01 to 0.1 µM.

In the case of `O=C(Cn1cc(Nc2nccc(NCc3c(F)cccc3Cl)n2)cn1)N[C@@H]1C[C@@H]1F` [Example I-142], the IC50 on JAK2 is 1 to 10 µM; at TYK2, 0.01 to 0.1 µM.

Turning to `CNC(=O)Cn1cc(Nc2ncc(F)c(NCc3cc(S(C)(=O)=O)ccc3OC)n2)cn1` [Example I-448], the values for the IC50 at JAK2 and on TYK2 were 1 to 10 µM and 0.01 to 0.1 µM, respectively.

As for `Cc1cnc(Nc2cnn(CCO)c2)nc1NCc1c(F)cccc1F` [Example I-298], the results for the concentration for half-maximal inhibition (IC50) at JAK2 and on TYK2 were 0.1 to 1 µM and not above 0.01 µM, respectively.

Turning to `Cn1cc(Nc2ncc(Cl)c(NCc3c(F)ccc(F)c3F)n2)cn1` [Example I-340], the IC50 on JAK2 was 0.1 to 1 µM; at TYK2, 0.01 to 0.1 µM.

Consider `CC(C)NC(=O)Cn1cc(Nc2nccc(NCc3c(Cl)ccc(F)c3F)n2)cn1` [Example I-93], for which the IC50 at JAK2 was 1 to 10 µM; on TYK2 it was 0.01 to 0.1 µM.

With `N#Cc1c(F)cccc1CNc1nc(Nc2cnn(CC(N)=O)c2)ncc1Cl` [Example I-286], the IC50 on JAK2 and at TYK2 was 0.1 to 1 µM throughout.

In the case of `OCCn1cc(Nc2ncc(Cl)c(NCc3ccccc3C(F)(F)F)n2)cn1` [Example I-191], the IC50 was in the range of 1 to 10 µM at JAK2 and 0.1 to 1 µM at TYK2.

Regarding `CCC(CC)NC(=O)Cn1cc(Nc2ncc(F)c(NCc3c(F)cc(F)cc3F)n2)cn1` [Example I-58], the IC50 at JAK2 is more than 10 µM; at TYK2, 0.01 to 0.1 µM.

Regarding `CC(C)NC(=O)Cn1cc(Nc2nccc(NCc3c(F)ccc(C#N)c3F)n2)cn1` [Example I-134], the IC50 was 1 to 10 µM at JAK2 and not above 0.01 µM at TYK2.

Regarding `Cc1cccc(F)c1CNc1ccnc(Nc2cnn(C)c2)n1` [Example I-437], the IC50 at JAK2 was in the range of 1 to 10 µM; at TYK2 it was 0.01 to 0.1 µM.

Take `O=C(Cn1cc(Nc2nccc(NCc3c(F)cc(F)cc3F)n2)cn1)N[C@H]1C[C@H]1F` [Example I-454]: the IC50 lay in the range of 1 to 10 µM at JAK2 and 0.01 to 0.1 µM at TYK2.

For `Cc1cnc(Nc2cnn(CC(=O)N3CCOCC3)c2)nc1NCc1c(F)cc(F)cc1F` [Example I-21], the IC50 at JAK2 is 1 to 10 µM; on TYK2, not above 0.01 µM.

As for `Cc1cnc(Nc2cnn(C)c2)nc1NCc1c(F)ccc(F)c1F` [Example I-420], the IC50 lay in the range of 0.1 to 1 µM at JAK2 and 0.01 to 0.1 µM at TYK2.

As for `COc1c(F)cc(F)cc1CNc1nc(Nc2cnn(C)c2)ncc1Cl` [Example I-276], the results for the IC50 at JAK2 and at TYK2 were 0.01 to 0.1 µM and 0.1 to 1 µM, respectively.

On to `CS(=O)(=O)c1cccc(CNc2nc(Nc3cnn(CC(=O)NC4CC4)c3)ncc2Cl)c1` [Example I-440], for which the IC50 on JAK2 lay within 1 to 10 µM; on TYK2 it was 0.01 to 0.1 µM.

For the compound `N#CCNC(=O)c1cccc(CNc2nc(Nc3cnn(CCO)c3)ncc2Cl)c1` [Example I-242], the results for the IC50 on JAK2 and on TYK2 were 1 to 10 µM and 0.1 to 1 µM, respectively.

For the compound `CS(=O)(=O)CCn1cc(Nc2ncc(Cl)c(NCc3ccccc3)n2)cn1` [Example I-289], the IC50 on JAK2 and on TYK2 was 1 to 10 µM each time.

Turning to `O=C(O)Cn1cc(Nc2ncc(F)c(NCc3c(F)cc(F)cc3F)n2)cn1` [Example I-307], the IC50 at JAK2 is more than 10 µM; on TYK2 it was 0.01 to 0.1 µM.

For `Fc1cc(F)c(CNc2nc(Nc3cn[nH]c3)ncc2Cl)c(F)c1` [Example I-372], the IC50 on JAK2 lay in the range of 1 to 10 µM; on TYK2, 0.01 to 0.1 µM.

In the case of `Fc1cccc(CNc2nc(Nc3cn[nH]c3)ncc2Cl)c1C(F)(F)F` [Example I-136], the IC50 at JAK2 lay in the range of 0.1 to 1 µM; at TYK2, 0.01 to 0.1 µM.

As for `CCOC(=O)Cn1cc(Nc2ncc(Cl)c(NCc3ccccc3)n2)cn1` [Example I-225], the IC50 on JAK2 lay in the range of 1 to 10 µM; on TYK2, 0.1 to 1 µM.

Regarding `Cn1cc(Cn2cc(Nc3ncc(Cl)c(NCc4c(F)cccc4F)n3)cn2)cn1` [Example I-482], the IC50 on JAK2 is 1 to 10 µM; on TYK2, 0.1 to 1 µM.

Regarding `COc1cc(F)c(CNc2nc(Nc3cnn(C)c3)ncc2C)c(F)c1` [Example I-314], the results for the IC50 on JAK2 and at TYK2 were 1 to 10 µM and 0.01 to 0.1 µM, respectively.

For the compound `COc1ccc(F)c(CNc2nc(Nc3cnn(CC(=O)N4CCOCC4)c3)ncc2C)c1F` [Example I-22], the IC50 is 0.1 to 1 µM at JAK2 and not above 0.01 µM on TYK2.

As to `N#Cc1cccc(CNc2nc(Nc3cnn(CCO)c3)ncc2Cl)c1` [Example I-182], the IC50 at JAK2 is 0.1 to 1 µM; on TYK2, 0.01 to 0.1 µM.

For the compound `Cn1cc(Nc2ncc(Cl)c(NCc3cc(F)cc(F)c3)n2)cn1` [Example I-176], the IC50 on JAK2 and on TYK2 was 0.01 to 0.1 µM in each case.

On to `Cn1cc(Nc2nccc(NCc3c(F)ccc(C#N)c3F)n2)cn1` [Example I-135], for which the IC50 at JAK2 was 1 to 10 µM; at TYK2, 0.01 to 0.1 µM.

Consider `CNC(=O)Cn1cc(Nc2ncc(Cl)c(NCc3cc(F)cc(C(F)(F)F)c3)n2)cn1` [Example I-189], for which the IC50 fell in the range of 1 to 10 µM at JAK2 and 0.1 to 1 µM on TYK2.

For `O=C(Cn1cc(Nc2ncc(F)c(NCc3c(F)cc(F)cc3F)n2)cn1)NC1CCC1` [Example I-308], the IC50 on JAK2 is more than 10 µM; on TYK2, 0.01 to 0.1 µM.

For the compound `COc1ccc(F)c(CNc2nc(Nc3cnn(C)c3)ncc2Cl)c1F` [Example I-319], the half-maximal inhibitory concentration (IC50) on JAK2 fell in the range of 1 to 10 µM; at TYK2, 0.01 to 0.1 µM.

For the compound `COc1ccc(F)c(CNc2nc(Nc3cnn(CCO)c3)ncc2Cl)c1F` [Example I-320], the figures for the IC50 at JAK2 and on TYK2 were 0.1 to 1 µM and 0.01 to 0.1 µM, respectively.

Turning to `CNC(=O)Cn1cc(Nc2ncc(Cl)c(NCc3c(F)cccc3F)n2)cn1` [Example I-229], the values for the IC50 at JAK2 and on TYK2 were 1 to 10 µM and 0.01 to 0.1 µM, respectively.

As to `Cc1ccc(F)c(CNc2nc(Nc3cnn(CC(=O)N(C)C)c3)ncc2Cl)c1F` [Example I-283], the results for the IC50 at JAK2 and on TYK2 were 1 to 10 µM and 0.01 to 0.1 µM, respectively.

As for `Cn1cc(Nc2ncc(Cl)c(NCc3cc(C(F)(F)F)ccc3F)n2)cn1` [Example I-277], the IC50 lay in the range of 1 to 10 µM at JAK2 and 0.1 to 1 µM at TYK2.

Turning to `O=C(Cn1cc(Nc2nccc(NCc3c(F)cc(F)cc3F)n2)cn1)N[C@H]1CCOC1` [Example I-138], the IC50 at JAK2 lay within 1 to 10 µM; on TYK2, 0.01 to 0.1 µM.

Regarding `OCCn1cc(Nc2ncc(Cl)c(NCc3ccc(O)cc3)n2)cn1` [Example I-219], the IC50 at JAK2 was in the range of 0.1 to 1 µM; on TYK2, 0.01 to 0.1 µM.

For `COc1ccc(F)c(CNc2nc(Nc3cnn(CC(=O)NC(C)C)c3)ncc2F)c1F` [Example I-48], the IC50 was 1 to 10 µM at JAK2 and not above 0.01 µM at TYK2.

For the compound `COc1ccc(F)c(CNc2nc(Nc3cnn(CC(=O)N(C)C(C)C)c3)ncc2F)c1F` [Example I-57], the figures for the IC50 at JAK2 and at TYK2 were 1 to 10 µM and not above 0.01 µM, respectively.

Consider `CC(C)(C)NC(=O)Cn1cc(Nc2nccc(NCc3c(F)cc(F)cc3F)n2)cn1` [Example I-51], for which the values for the IC50 at JAK2 and at TYK2 were more than 10 µM and 0.01 to 0.1 µM, respectively.

Consider `CNC(=O)Cn1cc(Nc2ncc(C)c(NCc3cc(F)cc(F)c3)n2)cn1` [Example I-354], for which the IC50 at JAK2 and on TYK2 was 0.1 to 1 µM each time.

Turning to `CC(C)N(C)C(=O)Cn1cc(Nc2ncc(F)c(NCc3c(F)cc(F)cc3F)n2)cn1` [Example I-59], the figures for the IC50 on JAK2 and at TYK2 were 1 to 10 µM and not above 0.01 µM, respectively.

With `CC(O)Cn1cc(Nc2ncc(Cl)c(NCc3c(F)cccc3F)n2)cn1` (stereo not drawn) [Example I-209], the results for the 50% inhibitory concentration (IC50) at JAK2 and at TYK2 were 1 to 10 µM and 0.01 to 0.1 µM, respectively.

As to `Cc1cccc(F)c1CNc1ccnc(Nc2cnn(CC(=O)NC(C)C)c2)n1` [Example I-155], the IC50 at JAK2 was 1 to 10 µM; at TYK2, not above 0.01 µM.

For `OCCn1cc(Nc2ncc(Cl)c(NCc3ccccn3)n2)cn1` [Example I-247], the IC50 on JAK2 fell in the range of 0.1 to 1 µM; on TYK2 it was 1 to 10 µM.

For the compound `Cn1cc(Nc2nccc(NCc3c(F)cncc3F)n2)cn1` [Example I-148], the IC50 was 1 to 10 µM on JAK2 and 0.01 to 0.1 µM at TYK2.

`N#CC1CCCN1C(=O)Cn1cc(Nc2ncc(Cl)c(NCc3ccccc3)n2)cn1` (stereo not drawn) [Example I-237]: the IC50 at JAK2 lay in the range of 0.1 to 1 µM; on TYK2, 0.01 to 0.1 µM.

For `CS(=O)(=O)c1ccccc1CNc1nc(Nc2cnn(CC(N)=O)c2)ncc1F` [Example I-436], the IC50 was in the range of 1 to 10 µM at JAK2 and 0.1 to 1 µM at TYK2.

On to `CCOc1ccc(F)c(CNc2nc(Nc3cnn(CCO)c3)ncc2Cl)c1F` [Example I-358], for which the IC50 at JAK2 fell in the range of 0.1 to 1 µM; on TYK2, 0.01 to 0.1 µM.

In the case of `COCCNC(=O)Cn1cc(Nc2ncc(Cl)c(NCc3ccccc3)n2)cn1` [Example I-273], the IC50 was in the range of 1 to 10 µM at JAK2 and 0.1 to 1 µM on TYK2.

In the case of `CNC(=O)Cn1cc(Nc2ncc(Cl)c(NCc3cc(S(C)(=O)=O)ccc3OC)n2)cn1` [Example I-444], the IC50 was 0.1 to 1 µM at JAK2 and 0.01 to 0.1 µM on TYK2.

For `COc1ccc(F)c(CNc2nc(Nc3cnn(CC(=O)N4CCOCC4)c3)ncc2Cl)c1F` [Example I-377], the IC50 lay in the range of 0.1 to 1 µM at JAK2 and 0.01 to 0.1 µM at TYK2.

`Cn1cc(Nc2ncc(Cl)c(NCc3cccc(CS(C)(=O)=O)c3)n2)cn1` [Example I-442]: the IC50 on JAK2 and at TYK2 was 1 to 10 µM in each case.
